pEC50, pIC50: −log10 of the molar value.
Columns and labels:
[1] = Inhibition of RNA-dependent DNA polymerase activity of recombinant HIV-1 p66/p51 reverse transcriptase K103N/Y181C mutant assessed as inhibition of [3H]dTTP incorporation using poly(rA)/oligo(dT) as templates incubated for 15 mins by MicroBeta scintillation counting method; set-up: species or system Human immunodeficiency virus 1
[2] = tested on: Human immunodeficiency virus 1; test: Resistance index, ratio of EC50 for antiviral activity against HIV1 harboring RT Y188L mutant infected in human MT4 cells to EC50 for antiviral activity against HIV1 NL4-3 infected in human MT4 cells; format: functional
[3] = tested on: Human immunodeficiency virus 1; test: Resistance index, ratio of EC50 for antiviral activity against HIV1 harboring RT Y181C mutant infected in human MT4 cells to EC50 for antiviral activity against HIV1 NL4-3 infected in human MT4 cells; format: functional
[4] = tested on: Human immunodeficiency virus 1; test: Resistance index, ratio of EC50 for antiviral activity against HIV1 harboring RT K103N mutant infected in human MT4 cells to EC50 for antiviral activity against HIV1 NL4-3 infected in human MT4 cells; format: functional
[5] = tested on: Human immunodeficiency virus 1; test: Resistance index, ratio of EC50 for antiviral activity against HIV1 harboring RT K103N/Y181C double mutant infected in human MT4 cells to EC50 for antiviral activity against HIV1 NL4-3 infected in human MT4 cells; format: functional
[6] = Inhibition of RNA-dependent DNA polymerase activity of recombinant HIV-1 p66/p51 reverse transcriptase Y188L mutant assessed as inhibition of [3H]dTTP incorporation using poly(rA)/oligo(dT) as templates incubated for 15 mins by MicroBeta scintillation counting method; set-up: species or system Human immunodeficiency virus 1
[7] = target: Human immunodeficiency virus type 1 reverse transcriptase (Human immunodeficiency virus 1, UniProt Q72547, K103N); test: Inhibition of RNA-dependent DNA polymerase activity of recombinant HIV-1 p66/p51 reverse transcriptase K103N mutant assessed as inhibition of [3H]dTTP incorporation using poly(rA)/oligo(dT) as templates incubated for 15 mins by MicroBeta scintillation counting method
[8] = target: Human immunodeficiency virus type 1 reverse transcriptase (Human immunodeficiency virus 1, UniProt Q72547); test: Inhibition of RNA-dependent DNA polymerase activity of wild type recombinant HIV-1 His-tagged p66/p51 reverse transcriptase assessed as inhibition of [3H]dTTP incorporation using poly(rA)/oligo(dT) as templates incubated for 15 mins by MicroBeta scintillation counting method
[9] = tested on: Human immunodeficiency virus 1; test: Antiviral activity against HIV1 harboring RT K103N mutant infected in human MT4 cells assessed as protection against virus-induced cytopathic effect by MTT assay; format: functional, organism-based; settings: Human immunodeficiency virus 1, MT4
[10] = tested on: Human immunodeficiency virus 1; test: Antiviral activity against HIV1 harboring RT K103N/Y181C double mutant infected in human MT4 cells assessed as protection against virus-induced cytopathic effect by MTT assay; format: functional, organism-based; settings: Human immunodeficiency virus 1, MT4
[11] = tested on: Human immunodeficiency virus 1; test: Antiviral activity against HIV1 harboring RT Y181C mutant infected in human MT4 cells assessed as protection against virus-induced cytopathic effect by MTT assay; format: functional, organism-based; settings: Human immunodeficiency virus 1, MT4
[12] = tested on: Human immunodeficiency virus 1; test: Antiviral activity against HIV1 harboring RT Y188L mutant infected in human MT4 cells assessed as protection against virus-induced cytopathic effect by MTT assay; format: functional, organism-based; settings: Human immunodeficiency virus 1, MT4
[13] = tested on: Human immunodeficiency virus 1; test: Antiviral activity against HIV-1 NL4-3 infected in human MT-4 cells assessed as virus induced cytopathic effect by MTT assay; format: functional, organism-based; settings: Human immunodeficiency virus 1, NL4-3, MT4
[14] = Selectivity ratio of CC50 for human MT4 cells to EC50 for antiviral activity against HIV-1 NL4-3 infected in human MT4 cells; format: toxicity, cell-based; settings: read-out: Ratio CC50/EC50
[15] = Cytotoxicity against human MT-4 cells assessed as reduction in cell viability by MTT assay; format: cell-based, MT4
[16] = tested on: Human immunodeficiency virus 1; test: Antiviral activity against wild type HIV-1 P1 infected in human C8166 cells assessed as reduction in viral RNA production at 25 nM; format: functional; settings: Human immunodeficiency virus 1, P1, C8166
[17] = tested on: Human immunodeficiency virus 1; test: Antiviral activity against wild type HIV-1 P1 infected in human C8166 cells assessed as reduction in viral RNA production at 5 nM; format: functional; settings: Human immunodeficiency virus 1, P1, C8166
[18] = tested on: Human immunodeficiency virus 1; test: Antiviral activity against wild type HIV-1 P1 infected in human C8166 cells assessed as reduction in viral p24 antigen production at 25 nM; format: functional; settings: Human immunodeficiency virus 1, P1, C8166
[19] = tested on: Human immunodeficiency virus 1; test: Antiviral activity against wild type HIV-1 P1 infected in human C8166 cells assessed as reduction in viral RNA production at 1 nM; format: functional; settings: Human immunodeficiency virus 1, P1, C8166

In the case of `Cc1cc(C)cc(S(=O)(=O)c2c(C(=O)NC(C)C(=O)NCc3cccc(O)c3)[nH]c3ccc(Cl)cc23)c1` (stereo not drawn), the pIC50 [1] was 6.07, the “Ratio EC50” value [2] was >5340 and the “Ratio EC50” value [3] was 12. The “Ratio EC50” value [4] was >31, the “Ratio EC50” value [5] was >5239 and the pIC50 [6] was 7.47. It also gave a pIC50 [7] of 7.92, a pIC50 [8] of 6.68 and a pEC50 [9] of 7.73. The pEC50 [10] was 5.44, the pEC50 [11] was 8.13 and the pEC50 [12] was 5.49. The pEC50 [13] was > 9.22, the selectivity ratio [14] was > 39600 and the CC50 [15] was 23800 nM.

In the case of `Cc1cc(C)cc(S(=O)(=O)c2c(C(=O)NCc3ccccc3N)[nH]c3ccc(Cl)cc23)c1`, the pIC50 [1] was 7.82, the “Ratio EC50” value [2] was >3 and the inhibition at 0.025 µM [16] was 100%. For the same compound, the “Ratio EC50” value [5] was >33, the pIC50 [6] was 7.24 and the pIC50 [7] was 8.15. For the same compound, the pIC50 [8] was 7.72, the pEC50 [9] was > 9.15 and the pEC50 [10] was 7.63. For the same compound, the inhibition at 0.005 µM [17] was 10%, the inhibition at 0.025 µM [18] was 90% and the pEC50 [11] was > 9.15. For the same compound, the pEC50 [12] was 8.68, the pEC50 [13] was > 9.15 and the selectivity ratio [14] was > 65900. The CC50 [15] was 46200 nM.

With `Cc1cc(C)cc(S(=O)(=O)c2c(C(=O)NCc3cccc(O)c3)[nH]c3ccc(Cl)cc23)c1` the pIC50 [1] was 7.35, the inhibition at 0.001 µM [19] was 7% and the inhibition at 0.025 µM [16] was 85%. The “Ratio EC50” value [3] was >18, the “Ratio EC50” value [5] was >183 and the pIC50 [6] was 7.48. For the same compound, the pIC50 [7] was 8.70, the pIC50 [8] was 7.17 and the pEC50 [9] was > 9.22. For the same compound, the pEC50 [10] was 6.96, the inhibition at 0.005 µM [17] was 38% and the inhibition at 0.025 µM [18] was 55%. For the same compound, the pEC50 [11] was 7.96, the pEC50 [13] was > 9.22 and the selectivity ratio [14] was > 44900. For the same compound, the CC50 [15] was 27000 nM.

In the case of `Cc1cc(C)cc(S(=O)(=O)c2c(C(=O)NCCc3ccc(O)cc3)[nH]c3ccc(Cl)cc23)c1`, the “Ratio EC50” value [2] was >39103, the “Ratio EC50” value [3] was >141 and the “Ratio EC50” value [4] was >276. The “Ratio EC50” value [5] was 6152, the pEC50 [9] was 6.78 and the pEC50 [10] was 5.37. For the same compound, the pEC50 [11] was 7.07, the pEC50 [12] was < 4.56 and the pEC50 [13] was > 9.15. The selectivity ratio [14] was > 39100 and the CC50 [15] was 27400 nM.
